Assay results from PMC8400955 (Pharmaceuticals, 2021).
Entries after “also recorded” stand apart in the source; their conditions may differ. Read-outs that look alike come from different tables or passages of the source.

Key:
[1] = Stability in incubation medium only; type: in vitro ADME; details: 1 μM
Protocol: (§1) Hepatocytes of humans (#X008001), dogs (#M00205), rats (#M00005), and mice (#M005052) were purchased from BioIVT, NY, USA. Monkey hepatocytes were procured from RILD, Shanghai, China. The metabolic stability of ZB716 in human, monkey, dog, rat and mouse hepatocytes was investigated by incubating ZB716 with human, monkey, dog, rat, and mouse hepatocytes (0.5 × 10^6 cells/mL), or with incubation medium only.
(§2) parent disappearance vs. incubation time curve.
(§3) Scaled-up Clint = kV/N × Scaling Factor
(§4) metabolite formed during the reaction.

monkey hepatocytes = assay: Metabolic stability in monkey hepatocytes; type: in vitro ADME; details: 1 μM
Protocol: as §1, §2, §3, §4

[2] = Metabolic stability in monkey hepatocytes; type: in vitro ADME
Protocol: as §1, §2, §3, §4

[3] = 7-day repeated-dose PK in rats; type: in vivo, Sprague Dawley rats; details: rat, plasma
Protocol: Groups of Sprague Dawley rats (n = 5/sex/group; n = 3/sex/TK group) were orally administered ZB716 (20% PG, 5% Solutol, and 75% of 40% HP-β-CD in DI water) at dose levels of 10, 100, and 400 mg/kg/day for 7 days. […] Systemic exposure, expressed as Cmax and AUClast values, increased with dose in a less than dose-proportional manner on days 1 and 7 (Figure 2). A slight gender difference was observed; generally, systemic exposures were higher in females than in males (male/female AUClast ratio = 0.442:0.883). Accumulation was observed only in male animals given 400 mg/kg/day.
Four-to-six-week-old Sprague Dawley rats (Crl: CD (SD)) (SPF/VAF) were purchased from Beijing Vital River Laboratory Animal Technology, Co. Ltd.). Six-month-old beagle dogs were purchased from Beijing Marshall Biotechnology Co. Ltd. Animals were quarantined/acclimated for 2–6 weeks prior to dose initiation. Both Sprague Dawley rats and beagle dogs were given oral administration of ZB716 (20% PG, 5% Solutol, and 75% of 40% HP-β-CD in water) at different dose levels. After treatment with the test articles, whole blood was collected from each study animal by puncture of the tail vein (0.4 mL of whole blood from rats) and/or the peripheral vein (0.6 mL of whole blood from dogs) into tubes containing K2EDTA at each timepoint: pre-dose, and 0.5, 1, 2, 4, 8, and 24 h post-dose. The plasma samples were divided into 2 aliquots (approximately equal in volume) and stored frozen at −75 ± 15 °C within 2 h of the collection until analysis at Pharmaron, China.
The stock solution of ZB716 (5.0 mg/mL) and ZB716-d6 (1 mg/mL) in ACN:DI Water = 1:1 was prepared and stored at −20 ± 5 °C. The desired serial concentrations of working reference analyte solutions were achieved by diluting a stock analyte solution with 50% acetonitrile (0.1% formic acid) in water solution. The bioanalytical LC–MS/MS method was validated for quantitative determination of ZB716 in Sprague Dawley rat plasma and beagle dog plasma, with acceptable selectivity, sensitivity, calibration curve, precision, and accuracy. This method is applicable for the determination of ZB716 in Sprague Dawley rat plasma and beagle dog plasma, with a lower limit of quantification of 20.0 ng/mL, and an upper limit of quantification of 10,000 ng/mL.
Five microliters of diluted supernatant was injected into the LC–MS/MS system (Shimadzu LC30AD HPLC system with a SynergiTM 4 μm Fusion-RP 80 Å (50 × 2 mm) column using gradient elution and a Triple Quad 5500 mass spectrometer) for quantitative analysis. The mobile phases used were 0.1% formic acid in deionized water and 0.1% formic acid in acetonitrile. The pharmacokinetic parameters T1/2 (the biological half-life), Cmax (maximal concentration), Tmax (time at which Cmax is observed), and AUC (area under the plasma concentration–time curve) were calculated from the plasma concentration versus time data using WinNonlin (Phoenix^TM, version 8.1, Mountain View, CA, USA). All PK studies were conducted by Pharmaron in Beijing, China.

CYP2C19 = CYP2C19 (Homo sapiens, UniProt P33261); assay: CYP phenotyping, recombinant CYP2C19
CYP3A4 = CYP3A4 (Homo sapiens, UniProt P08684); assay: CYP inhibition in human liver microsomes, CYP3A4; type: in vitro ADME; design: 2D6, and 3A4) in human liver microsomes (0.2 mg/mL) in the presence of NADPH; from tissue; host or cells: human liver microsomes; details: HLM
Protocol: . The inhibition of CYP2B6 and 3A4 (when midazolam was used as the substrate) by ZB716 was not observed. The inhibitory potential of ZB716 on human CYP enzyme activities appears relatively low.
The final concentrations of ZB716 in the incubation system were 0, 0.05, 0.15, 0.5, 1.5, 5, and 15 µM (final organic solvent concentration ≤ 1%). […] . […] The concentrations of the isoform-specific metabolites derived from marker substrates were measured by UPLC–MS/MS. The IC50 values were calculated from the percentages of the rate of the metabolite formation relative to non-inhibited controls vs. the concentrations of ZB716 or positive control inhibitors. All incubations were performed in triplicate. The mean of the enzyme activity (% of non-inhibited control) for each concentration was plotted against the log inhibitor concentration, and fitted to an IC50 curve.

[4] = female, Sprague Dawley (Crl: CD (SD)), po, 400 mg/kg/day, day 1, PO 400 mg/kg/day, F
[5] = female, Sprague Dawley, po, 10 mg/kg/day, day 1, PO 10 mg/kg/day, F
[6] = female, Sprague Dawley, po, 10 mg/kg/day, day 7, PO 10 mg/kg/day, F
[7] = female, Sprague Dawley, po, 100 mg/kg/day, day 7, PO 100 mg/kg/day, F
[8] = female, Sprague Dawley, po, 400 mg/kg/day, day 7, PO 400 mg/kg/day, F
[9] = male, Sprague Dawley (Crl: CD (SD)), po, 10 mg/kg/day, day 7, PO 10 mg/kg/day, M
[10] = male, Sprague Dawley (Crl: CD (SD)), po, 400 mg/kg/day, day 1, PO 400 mg/kg/day, M
[11] = male, Sprague Dawley, po, 10 mg/kg/day, day 1, PO 10 mg/kg/day, M
[12] = male, Sprague Dawley, po, 100 mg/kg/day, day 1, PO 100 mg/kg/day, M
[13] = male, Sprague Dawley, po, 100 mg/kg/day, day 7, PO 100 mg/kg/day, M
[14] = male, Sprague Dawley, po, 400 mg/kg/day, day 7, PO 400 mg/kg/day, M

CYP3A4, sequence (P08684 whole entry): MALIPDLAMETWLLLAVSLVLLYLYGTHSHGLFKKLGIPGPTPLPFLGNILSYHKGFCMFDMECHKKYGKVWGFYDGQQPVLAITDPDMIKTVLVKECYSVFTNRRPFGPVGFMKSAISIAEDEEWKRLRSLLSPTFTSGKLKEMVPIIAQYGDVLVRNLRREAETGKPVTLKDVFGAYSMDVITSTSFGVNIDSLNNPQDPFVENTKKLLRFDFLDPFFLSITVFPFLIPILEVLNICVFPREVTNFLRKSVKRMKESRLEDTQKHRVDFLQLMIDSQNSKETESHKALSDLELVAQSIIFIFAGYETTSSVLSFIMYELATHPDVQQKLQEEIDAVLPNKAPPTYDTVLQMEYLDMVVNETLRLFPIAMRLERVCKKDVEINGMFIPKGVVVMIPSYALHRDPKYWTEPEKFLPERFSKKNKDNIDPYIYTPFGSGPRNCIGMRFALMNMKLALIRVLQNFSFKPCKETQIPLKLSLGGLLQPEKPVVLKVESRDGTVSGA
CYP2C19, sequence (P33261 whole entry): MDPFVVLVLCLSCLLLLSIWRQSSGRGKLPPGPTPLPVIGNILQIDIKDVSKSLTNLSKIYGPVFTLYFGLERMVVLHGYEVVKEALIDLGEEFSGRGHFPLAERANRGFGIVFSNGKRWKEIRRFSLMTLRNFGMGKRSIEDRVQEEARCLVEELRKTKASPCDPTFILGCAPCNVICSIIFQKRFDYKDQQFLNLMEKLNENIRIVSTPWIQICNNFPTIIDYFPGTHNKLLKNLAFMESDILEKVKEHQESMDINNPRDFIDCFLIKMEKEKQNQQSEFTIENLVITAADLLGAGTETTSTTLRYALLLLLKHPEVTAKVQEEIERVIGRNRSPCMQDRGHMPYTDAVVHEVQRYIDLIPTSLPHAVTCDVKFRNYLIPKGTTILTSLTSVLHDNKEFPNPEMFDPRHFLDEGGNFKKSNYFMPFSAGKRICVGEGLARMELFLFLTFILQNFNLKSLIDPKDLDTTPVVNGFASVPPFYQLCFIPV

SMILES: C[C@]12CC[C@@H]3c4ccc(B(O)O)cc4C[C@@H](CCCCCCCCC[S+]([O-])CCCC(F)(F)C(F)(F)F)[C@H]3[C@@H]1CC[C@@H]2O (stereo partly drawn) [ZB716, fulvestrant-3-boronic acid]
- Estimated In Vitro t1/2 [1]: ∞
- Remaining at 120 min [1]: 100%
- Remaining at 120 min (monkey hepatocytes): 4.41 ± 0.46%
- half-life at 1 μM ([2]; read-out: Estimated In Vitro t1/2): 27.6 ± 2 min
- hepatocyte CLint at 1 μM ([2]; read-out: In Vitro Clint): 50.3 ± 3.6 µL/min/1e6 cells
- CLint scaled at 1 μM ([2]; read-out: Scaled-Up Clint): 181 ± 13 mL/min/kg
- Tmax ([3]; both sexes, Sprague Dawley, oral, 100 mg/kg/day, 10 and 100 mg/kg/day, day 1 and day 7, mostly, read-out: Tmax): 30 to 60 min
- Tmax ([3]; both sexes, Sprague Dawley, oral, 400 mg/kg/day, day 1 and day 7, read-out: Tmax): ≤ 480 min
- AUC(0-t) ([3]; female, Sprague Dawley (Crl: CD (SD)), po, 100 mg/kg/day, day 1, PO 100 mg/kg/day, F): 26700 ng·h/mL
- AUC(0-t) [3, 4]: 27900 ng·h/mL
- Cmax [3, 4]: 2770 ng/mL
- Tmax ([3]; female, Sprague Dawley (Crl: CD (SD)), po, 400 mg/kg/day, day 1, PO 400 mg/kg/day, F, read-out: Tmax (median)): 480 min
- AUC(0-t) [3, 5]: 1760 ng·h/mL
- Cmax [3, 5]: 459 ng/mL
- Tmax ([3]; female, Sprague Dawley, po, 10 mg/kg/day, day 1, PO 10 mg/kg/day, F, read-out: Tmax (median)): 30 min
- AUC(0-t) [3, 6]: 2820 ng·h/mL
- Cmax [3, 6]: 710 ng/mL
- Tmax ([3]; female, Sprague Dawley, po, 10 mg/kg/day, day 7, PO 10 mg/kg/day, F, read-out: Tmax (median)): 30 min
- Cmax ([3]; female, Sprague Dawley, po, 100 mg/kg/day, day 1, PO 100 mg/kg/day, F): 3350 ng/mL
- Tmax ([3]; female, Sprague Dawley, po, 100 mg/kg/day, day 1, PO 100 mg/kg/day, F, read-out: Tmax (median)): 60 min
- AUC(0-t) [3, 7]: 20700 ng·h/mL
- Cmax [3, 7]: 2750 ng/mL
- Tmax ([3]; female, Sprague Dawley, po, 100 mg/kg/day, day 7, PO 100 mg/kg/day, F, read-out: Tmax (median)): 30 min
- AUC(0-t) [3, 8]: 37100 ng·h/mL
- Cmax [3, 8]: 3710 ng/mL
- Tmax ([3]; female, Sprague Dawley, po, 400 mg/kg/day, day 7, PO 400 mg/kg/day, F, read-out: Tmax (median)): 30 min
- AUC(0-t) [3, 9]: 2260 ng·h/mL
- Cmax [3, 9]: 322 ng/mL
- Tmax ([3]; male, Sprague Dawley (Crl: CD (SD)), po, 10 mg/kg/day, day 7, PO 10 mg/kg/day, M, read-out: Tmax (median)): 60 min
- AUC(0-t) [3, 10]: 15200 ng·h/mL
- Cmax [3, 10]: 1920 ng/mL
- Tmax ([3]; male, Sprague Dawley (Crl: CD (SD)), po, 400 mg/kg/day, day 1, PO 400 mg/kg/day, M, read-out: Tmax (median)): 480 min
- AUC(0-t) [3, 11]: 1320 ng·h/mL
- Cmax [3, 11]: 365 ng/mL
- Tmax ([3]; male, Sprague Dawley, po, 10 mg/kg/day, day 1, PO 10 mg/kg/day, M, read-out: Tmax (median)): 30 min
- AUC(0-t) [3, 12]: 11800 ng·h/mL
- Cmax [3, 12]: 1420 ng/mL
- Tmax ([3]; male, Sprague Dawley, po, 100 mg/kg/day, day 1, PO 100 mg/kg/day, M, read-out: Tmax (median)): 30 min
- AUC(0-t) [3, 13]: 12900 ng·h/mL
- Cmax [3, 13]: 1610 ng/mL
- Tmax ([3]; male, Sprague Dawley, po, 100 mg/kg/day, day 7, PO 100 mg/kg/day, M, read-out: Tmax (median)): 30 min
- AUC(0-t) [3, 14]: 32700 ng·h/mL
- Cmax [3, 14]: 2340 ng/mL
- Tmax ([3]; male, Sprague Dawley, po, 400 mg/kg/day, day 7, PO 400 mg/kg/day, M, read-out: Tmax (median)): 480 min
- half-life at 2 µM (CYP2C19; human): 21.6 ± 2 min
- Clint (CYP2C19; recombinant CYP2C19, 2 µM ZB716): 0.646 ± 0.063 µL/min/pmol CYP
- IC50 (CYP3A4; CYP3A4-M, marker substrate Midazolam): not observed; also recorded: No Inhibition
- IC50 (CYP3A4; CYP3A4-T, marker substrate Testosterone, read-out: IC50): 11.2 µM
